According to publication PMC7158045 (BMC Plant Biology, 2020):

Tests used:
Assay in all cases: biochemical
[1] = molecular target: T1, ZmDRIK1-R187-P492 (Zea mays, UniProt C0P4K9); details: read-out: dTm B, DSF, Boltzmann fit, 0.1% DMSO
T1 construct: kinase domain, R187-P492
T1 sequence (C0P4K9 1-514): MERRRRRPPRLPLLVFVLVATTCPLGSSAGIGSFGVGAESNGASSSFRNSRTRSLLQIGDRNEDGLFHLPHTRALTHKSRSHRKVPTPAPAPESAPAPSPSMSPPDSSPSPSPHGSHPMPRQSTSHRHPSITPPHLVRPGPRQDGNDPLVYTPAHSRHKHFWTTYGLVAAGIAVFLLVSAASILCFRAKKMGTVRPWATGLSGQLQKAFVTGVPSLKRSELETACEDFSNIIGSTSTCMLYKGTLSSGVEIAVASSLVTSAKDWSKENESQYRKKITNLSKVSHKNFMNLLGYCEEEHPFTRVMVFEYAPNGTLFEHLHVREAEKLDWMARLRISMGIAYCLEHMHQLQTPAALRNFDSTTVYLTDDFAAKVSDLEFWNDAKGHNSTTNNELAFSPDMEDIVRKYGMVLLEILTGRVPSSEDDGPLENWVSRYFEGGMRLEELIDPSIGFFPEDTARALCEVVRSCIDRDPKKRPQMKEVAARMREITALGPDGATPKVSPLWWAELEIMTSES

[2] = molecular target: T2, ZmDRIK1-K217-P492 (Zea mays, UniProt C0P4K9); details: read-out: dTm B, sheet ZmDRIK1-K217-P492;; DSF, Boltzmann fit, 0.1% DMSO
T2 construct: kinase domain, K217-P492
T2 sequence (C0P4K9 1-514): T1 sequence (C0P4K9 1-514)

[3] = molecular target: T3, ZmDRIK1 (DROUGHT RESPONSIVE INACTIVE KINASE 1), kinase domain (Zea mays, UniProt C0P4K9); details: read-out: dTm B, sheet ZmDRIK1-R187-S514;; DSF, Boltzmann fit, 0.1% DMSO
T3 construct: gene ZEAMMB73_Zm00001d028770; ZmDRIK1-KD R187-S514 (kinase domain)
T3 sequence (C0P4K9 187-514): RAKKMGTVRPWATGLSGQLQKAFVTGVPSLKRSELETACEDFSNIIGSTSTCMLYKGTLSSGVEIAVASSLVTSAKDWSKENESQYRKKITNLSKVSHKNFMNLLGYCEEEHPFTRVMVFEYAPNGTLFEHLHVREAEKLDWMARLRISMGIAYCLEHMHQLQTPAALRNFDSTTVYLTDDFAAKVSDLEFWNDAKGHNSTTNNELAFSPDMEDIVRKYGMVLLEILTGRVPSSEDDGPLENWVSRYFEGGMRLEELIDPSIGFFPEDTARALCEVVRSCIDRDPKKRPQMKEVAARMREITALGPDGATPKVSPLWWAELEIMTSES

[4] = molecular target: T4, ZmDRIK1-K217-S514 (Zea mays, UniProt C0P4K9); details: read-out: dTm B, sheet ZmDRIK1-K217-S514;; DSF, Boltzmann fit, 0.1% DMSO
T4 construct: kinase domain, K217-S514
T4 sequence (C0P4K9 1-514): T1 sequence (C0P4K9 1-514)

| Structure (SMILES) | ΔTm at 10 µM [1] [°C] | ΔTm at 10 µM [2] [°C] | ΔTm at 10 µM [3] [°C] | ΔTm at 10 µM [4] [°C] |
| --- | --- | --- | --- | --- |
| CN1CCN(c2ccc(OC(F)(F)F)c(Nc3ncc4c(n3)-c3c(c(C(N)=O)nn3CCO)CC4)c2)CC1 [NMS-P937 (NMS1286937)] | -0.749 | -1.1 | -1.15 | -0.517 |
| CN(C)CCCn1cc(C2=C(c3c[nH]c4ccccc34)C(=O)NC2=O)c2ccccc21 [GF109203X] | -0.337 | -1.16 | -0.748 | -0.324 |
| CC(C)(C)c1cnc(CSc2cnc(NC(=O)C3CCNCC3)s2)o1 [SNS-032 (BMS-387032)] | -0.103 | -0.977 | -1.09 | -0.203 |
| Cc1cnc(NC(=O)Nc2cc(Br)c(C)cc2OC[C@@H]2CNCCO2)cn1 [LY2603618] | -0.548 | -0.992 | -0.608 | -0.525 |
| CCNC(=O)Nc1ccc(-c2nc3c(c(N4CCOC[C@@H]4C)n2)CCN(C2COC2)C3)cc1 [GDC-0349] | -0.218 | -0.749 | -0.899 | -0.392 |
| Cn1cc(C2=C(c3ccc(Cl)cc3Cl)C(=O)NC2=O)c2ccccc21 [SB216763] | -0.115 | -1.29 | -0.887 | -0.35 |
| COc1cc(Nc2ncc(F)c(Nc3ccc4c(n3)N(COP(=O)(O)O)C(=O)C(C)(C)O4)n2)cc(OC)c1OC [Fostamatinib (R788)] | -0.222 | -0.792 | -0.579 | -0.314 |
| CO[C@H]1C[C@@H]2CC[C@@H](C)[C@@](O)(O2)C(=O)C(=O)N2CCCC[C@H]2C(=O)O[C@H]([C@H](C)C[C@@H]2CC[C@@H](OC(=O)C(C)(CO)CO)[C@H](OC)C2)CC(=O)[C@H](C)/C=C(\C)[C@@H](O)[C@@H](OC)C(=O)[C@H](C)C[C@H](C)/C=C/C=C/C=C/1C [Temsirolimus (CCI-779)] | -0.393 | -1.36 | -2.07 | -0.361 |
| CCN1CCN(C(=O)Cc2ccc(Nc3ncc(F)c(Nc4ccc(C(=O)Nc5ccccc5Cl)cc4)n3)cc2)CC1 [Aurora A Inhibitor I] | -0.457 | -1.33 | -0.616 | -0.286 |
| CO[C@H]1C[C@@H]2CC[C@@H](C)[C@@](O)(O2)C(=O)C(=O)N2CCCC[C@H]2C(=O)O[C@H]([C@H](C)C[C@@H]2CC[C@@H](OP(C)(C)=O)[C@H](OC)C2)CC(=O)[C@H](C)/C=C(\C)[C@@H](O)[C@@H](OC)C(=O)[C@H](C)C[C@H](C)/C=C/C=C/C=C/1C [Ridaforolimus (Deforolimus)] | -0.365 | -1.84 | -0.675 | -0.213 |
| COc1cc2ncnc(Nc3cccc(Cl)c3)c2cc1OC [AG-1478 (Tyrphostin AG-1478)] | -0.424 | -0.243 | -0.676 | -0.388 |
| Cc1c(NC(=O)c2ccc(C(C)(C)C)cc2)cccc1-c1cn(C)c(=O)c(Nc2ccc(C(=O)N3CCOCC3)cc2)n1 [CGI1746] | -0.389 | -1.51 | -1.61 | -0.561 |

Further lines, results first:

| ΔTm at 10 µM [1] [°C] | ΔTm at 10 µM [2] [°C] | ΔTm at 10 µM [3] [°C] | ΔTm at 10 µM [4] [°C] | Structure (SMILES) |
| --- | --- | --- | --- | --- |
| -0.394 | -0.722 | -1.15 | -0.507 | N#C/C(=C\c1ccc(O)c(O)c1)C(=O)NCc1ccccc1 [AG-490 (Tyrphostin B42)] |
| -0.124 | -1.11 | -0.775 | -0.391 | Clc1ccc(Nc2nnc(Cc3ccncc3)c3ccccc23)cc1 [Vatalanib (PTK787) 2HCl] |
| -0.352 | -1.1 | -0.503 | -0.251 | CC(C)NC[C@@H](C(=O)N1CCN(c2ncnc3c2[C@H](C)C[C@H]3O)CC1)c1ccc(Cl)cc1 [GDC-0068] |
| -0.0835 | 0.0556 | -0.921 | -0.274 | CN(C)Cc1cccc(N=C(c2ccccc2)c2c(O)[nH]c3cc(C(=O)N(C)C)ccc23)c1 [BIX 02189] |
| -0.231 | -0.725 | -0.781 | -0.321 | CNC(=O)c1ccccc1Nc1nc(Nc2ccc(N3CCOCC3)cc2OC)ncc1Cl [TAE226 (NVP-TAE226)] |
| -3.67 | -0.971 | -0.0551 | -5.53 | O=C(Nc1ccc(OC(F)(F)F)cc1)c1sccc1NCc1ccnc2ccccc12 [OSI-930] |
| -0.18 | -0.671 | -1.07 | -0.731 | Nc1ncnc2c1c(-c1cccc(OCc3ccccc3)c1)cn2C1CC(CN2CCCC2)C1 (stereo in doubt) [NVP-ADW742] |
| -0.293 | -1.19 | -0.497 | -0.27 | C=CC(=O)Nc1cc(Nc2nccc(-c3cn(C)c4ccccc34)n2)c(OC)cc1N(C)CCN(C)C [AZD9291] |
| -0.136 | -1.01 | -0.972 | -0.253 | Cc1ccc(-c2nn(C(C)(C)C)c3ncnc(N)c23)cc1 [PP1] |
| -0.39 | -0.505 | -0.951 | -0.482 | Cc1ccc(C(=O)Nc2ccc(CN3CCN(C)CC3)c(C(F)(F)F)c2)cc1C#Cc1cnc2cccnn12 [Ponatinib (AP24534)] |
| 0.579 | -0.527 | -25.6 | 1.35 | CC(C)(O)CC(=O)NCCn1ccc2ncnc(Nc3ccc(Oc4cccc(C(F)(F)F)c4)c(Cl)c3)c21 [TAK-285] |
| -0.476 | -1.14 | -0.597 | -0.359 | C=CC(=O)N1CCC[C@@H](n2nc(-c3ccc(Oc4ccccc4)cc3)c3c(N)ncnc32)C1 [Ibrutinib (PCI-32765)] |
| -0.201 | -0.652 | -1.2 | -0.412 | C#Cc1cccc(Nc2ncnc3cc(OCCOC)c(OCCO)cc23)c1 [OSI-420] |
| 0.313 | -0.775 | -1.14 | -0.183 | Cc1nc(N)sc1-c1ccnc(Nc2ccc(N3CCOCC3)cc2)n1 [CYC116] |
| -0.129 | -0.927 | -1.11 | -0.253 | CCN(CCO)CCCOc1ccc2c(Nc3cc(CC(=O)Nc4cccc(F)c4)[nH]n3)ncnc2c1 [Barasertib (AZD1152-HQPA)] |
| -0.156 | -0.803 | -0.964 | -0.334 | FC(F)(F)c1ccc(/C=C/c2nc(COc3ccc(CCCCn4ccnn4)cc3)co2)cc1 [Mubritinib (TAK 165)] |
